The values that follow come from PubChem BioAssay AID220 (DTP/NCI, 2004).

Molecules are shown by their SMILES. “And” between values parts separate entries of the source, which are not always exact repeats. Equal values may be shown once. Inconclusive results are not listed.

This assay deals with CD8F1 mice, subcutaneous mammary adenocarcinoma, T/C%. Nature of the assay: NCI In Vivo Anticancer Drug Screen. Data for tumor model Mammary Adenocarcinoma CD8F1 (subcutaneous) in CD8F1. The settings on record: higher = larger tumour. The procedure, abridged: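 Ratio of treated to vehicle-control outcome, based on either survival or tumor size, in mice bearing transplantable tumors given the test compound.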

Setting [1] is: endpoint: median tumor weight (est.), dose: 12.5 mg/kg/injection, schedule: Q07DX005 (ip), vehicle: Klucel (hydroxypropylcellulose) (HPC).
[2] abbreviates: endpoint: median tumor weight (est.), dose: 25.0 mg/kg/injection, schedule: Q07DX005 (ip), vehicle: Klucel (hydroxypropylcellulose) (HPC).
Setting [3] is: endpoint: median tumor weight (est.), dose: 25.0 mg/kg/injection, schedule: Q07DX005 (ip), vehicle: saline.
Setting [4] is: endpoint: median tumor weight (est.), dose: 100.0 mg/kg/injection, schedule: Q07DX005 (ip), vehicle: Klucel (hydroxypropylcellulose) (HPC).
Setting [5] is: endpoint: median tumor weight (est.), dose: 200.0 mg/kg/injection, schedule: Q07DX005 (ip), vehicle: Klucel (hydroxypropylcellulose) (HPC).
Where [6] appears, read: endpoint: median tumor weight (est.), dose: 400.0 mg/kg/injection, schedule: Q07DX005 (ip), vehicle: Klucel (hydroxypropylcellulose) (HPC).
The mark [7] stands for this setting: endpoint: median tumor weight change, dose: 31.25 mg/kg/injection, schedule: Q01DX001 (ip), vehicle: saline with Tween-80.

Consider `COc1cc2cc(c1Cl)N1CC(O)C(C)(O)C(=O)NC(C)C(=O)OC(CC1=O)C1(C)OC1C(C)C1CC(O)(NC(=O)O1)C(OC)/C=C\C=C(\C)C2OC` (stereo not given), for which the T/C runs as follows: (endpoint: median tumor weight change, dose: 8.0 micrograms/kg/injection, schedule: Q01DX001 (ip), vehicle: distilled water + alcohol) 101 % of control; (endpoint: median tumor weight change, dose: 16.0 micrograms/kg/injection, schedule: Q01DX001 (ip), vehicle: distilled water + alcohol) 111 % of control; (endpoint: median tumor weight change, dose: 64.0 micrograms/kg/injection, schedule: Q01DX001 (ip), vehicle: distilled water + alcohol) 121 % of control.
Turning to `c1ccc2c(NCCCCCCNc3c4ccccc4nc4ccccc34)c3ccccc3nc2c1`, the T/C runs as follows: (endpoint: median tumor weight (est.), dose: 1.25 mg/kg/injection, schedule: Q07DX005 (ip), vehicle: Klucel (hydroxypropylcellulose) (HPC)) 97 % of control; (endpoint: median tumor weight (est.), dose: 2.5 mg/kg/injection, schedule: Q07DX005 (ip), vehicle: Klucel (hydroxypropylcellulose) (HPC)) 95 % of control; (endpoint: median tumor weight (est.), dose: 5.0 mg/kg/injection, schedule: Q07DX005 (ip), vehicle: Klucel (hydroxypropylcellulose) (HPC)) 58 % of control; (endpoint: median tumor weight (est.), dose: 20.0 mg/kg/injection, schedule: Q07DX005 (ip), vehicle: Klucel (hydroxypropylcellulose) (HPC)) 47 % of control.
As to `O=c1[nH]c(=O)n(C2CC(O)C(CO)O2)cc1I` (stereo not given), the T/C runs as follows: (endpoint: median tumor weight (est.), dose: 182.87 mg/kg/injection, schedule: Q07DX005 (ip), vehicle: saline with Tween-80) 99 % of control; (endpoint: median tumor weight (est.), dose: 365.75 mg/kg/injection, schedule: Q07DX005 (ip), vehicle: saline with Tween-80) 76 % of control; (endpoint: median tumor weight (est.), dose: 731.5 mg/kg/injection, schedule: Q07DX005 (ip), vehicle: saline with Tween-80) 91 % of control; (endpoint: median tumor weight (est.), dose: 800.0 mg/kg/injection, schedule: Q07DX005 (ip), vehicle: saline with Tween-80) 45 % of control and 50 % of control; (endpoint: median tumor weight (est.), dose: 1463.0 mg/kg/injection, schedule: Q07DX005 (ip), vehicle: saline with Tween-80) 50 % of control; (endpoint: median tumor weight (est.), dose: 1600.0 mg/kg/injection, schedule: Q07DX005 (ip), vehicle: saline with Tween-80) 46 % of control and 53 % of control. Moreover, for the setting “endpoint: median tumor weight (est.), dose: 3200.0 mg/kg/injection, schedule: Q07DX005 (ip), vehicle: saline with Tween-80”, the T/C was 7 % of control and 10 % of control.
For `N=C(N)CCCCCCCCC(=N)N`, the T/C was 67 % of control (endpoint: median tumor weight (est.), dose: 3.12 mg/kg/injection, schedule: Q07DX005 (ip), vehicle: Klucel (hydroxypropylcellulose) (HPC)); 86 % of control (endpoint: median tumor weight (est.), dose: 3.12 mg/kg/injection, schedule: Q07DX005 (ip), vehicle: saline); 123 % of control (endpoint: median tumor weight (est.), dose: 6.25 mg/kg/injection, schedule: Q07DX005 (ip), vehicle: Klucel (hydroxypropylcellulose) (HPC)); 78 % of control (endpoint: median tumor weight (est.), dose: 6.25 mg/kg/injection, schedule: Q07DX005 (ip), vehicle: saline); 34 % of control under setting [1]; 76 % of control (endpoint: median tumor weight (est.), dose: 12.5 mg/kg/injection, schedule: Q07DX005 (ip), vehicle: saline). Besides, the T/C runs as follows: under setting [2], 31 % of control; under setting [3], 28 % of control; (endpoint: median tumor weight change, dose: 8.0 mg/kg/injection, schedule: Q01DX001 (ip), vehicle: saline) 61 % of control; (endpoint: median tumor weight change, dose: 15.63 mg/kg/injection, schedule: Q01DX001 (ip), vehicle: saline) 77 % of control; (endpoint: median tumor weight change, dose: 16.0 mg/kg/injection, schedule: Q01DX001 (ip), vehicle: saline) 186 % of control; (endpoint: median tumor weight change, dose: 31.25 mg/kg/injection, schedule: Q01DX001 (ip), vehicle: saline) 76 % of control. The T/C (endpoint: median tumor weight change, dose: 32.0 mg/kg/injection, schedule: Q01DX001 (ip), vehicle: saline) was 48 % of control.
Consider `CC(C)(C)C1CCCCC1`, for which the T/C runs as follows: under setting [1], 85 % of control; under setting [2], 69 % of control; under setting [4], 94 % of control; under setting [5], 73 % of control; under setting [6], 69 % of control.
`Cl`: the T/C under setting [3] is 93 % of control; the T/C (endpoint: median tumor weight (est.), dose: 50.0 mg/kg/injection, schedule: Q07DX005 (ip), vehicle: saline) is 91 % of control; the T/C (endpoint: median tumor weight (est.), dose: 100.0 mg/kg/injection, schedule: Q07DX005 (ip), vehicle: saline) was 67 % of control; the T/C (endpoint: median tumor weight (est.), dose: 200.0 mg/kg/injection, schedule: Q07DX005 (ip), vehicle: saline) is 93 % of control; the T/C (endpoint: median tumor weight (est.), dose: 400.0 mg/kg/injection, schedule: Q07DX005 (ip), vehicle: saline) was 48 % of control.
Consider `Cc1cc2c(C(C)C)c(O)c(O)c(C=O)c2c(O)c1-c1c(C)cc2c(C(C)C)c(O)c(O)c(C=O)c2c1O`, for which the T/C under setting [7] is 65 % of control.
Turning to `Cc1cc(O)c2c(c1O)C(=O)C13C(=C2O)C(=O)C2C(O)C1C1C(O)C3C(=O)C3=C(O)c4c(O)cc(C)c(O)c4C(=O)C321` (stereo not given), the T/C is 38 % of control (endpoint: median tumor weight change, dose: 15.62 mg/kg/injection, schedule: Q01DX001 (ip), vehicle: saline with Tween-80) and 100 % of control under setting [7].
As for `Cc1c(N)nc(C(CC(N)=O)NCC(N)C(N)=O)nc1C(=O)NC(C(=O)NC(C)C(O)C(C)C(=O)NC(C(=O)NCCc1nc(-c2nc(C(=O)NCCCNCCCc3ccccn3)cs2)cs1)C(C)O)C(OC1OC(CO)C(O)C(O)C1OC1OC(CO)C(O)C(OC(N)=O)C1O)c1cnc[nH]1` (stereo not given), the T/C runs as follows: (endpoint: median tumor weight (est.), dose: 0.37 mg/kg/injection, schedule: Q07DX005 (ip), vehicle: water) 45 % of control; (endpoint: median tumor weight (est.), dose: 0.75 mg/kg/injection, schedule: Q07DX005 (ip), vehicle: water) 76 % of control; (endpoint: median tumor weight (est.), dose: 1.5 mg/kg/injection, schedule: Q07DX005 (ip), vehicle: water) 104 % of control; (endpoint: median tumor weight (est.), dose: 3.2 mg/kg/injection, schedule: Q07DX005 (ip), vehicle: water) 101 % of control; (endpoint: median tumor weight (est.), dose: 3.5 mg/kg/injection, schedule: Q07DX005 (ip), vehicle: water) 166 % of control; (endpoint: median tumor weight (est.), dose: 6.0 mg/kg/injection, schedule: Q07DX005 (ip), vehicle: water) 100 % of control. Besides, the T/C is, setting by setting: (endpoint: median tumor weight (est.), dose: 6.4 mg/kg/injection, schedule: Q07DX005 (ip), vehicle: water) 52 % of control; (endpoint: median tumor weight (est.), dose: 7.0 mg/kg/injection, schedule: Q07DX005 (ip), vehicle: water) 104 % of control; (endpoint: median tumor weight (est.), dose: 12.8 mg/kg/injection, schedule: Q07DX005 (ip), vehicle: water) 12 % of control; (endpoint: median tumor weight (est.), dose: 14.0 mg/kg/injection, schedule: Q07DX005 (ip), vehicle: water) 53 % of control; (endpoint: median tumor weight (est.), dose: 28.0 mg/kg/injection, schedule: Q07DX005 (ip), vehicle: water) 3 % of control.
`C[C@]12CCC(=O)C=C1CC[C@@H]1[C@@H]2[C@@H](O)C[C@@]2(C)[C@H]1CC[C@]2(O)C(=O)CO`: the T/C runs as follows: (endpoint: median tumor weight (est.), dose: 50.0 mg/kg/injection, schedule: Q07DX005 (ip), vehicle: Klucel (hydroxypropylcellulose) (HPC)) 76 % of control; under setting [4], 95 % of control; under setting [5], 60 % of control; under setting [6], 29 % of control; (endpoint: median tumor weight (est.), dose: 800.0 mg/kg/injection, schedule: Q07DX005 (ip), vehicle: Klucel (hydroxypropylcellulose) (HPC)) 21 % of control; (endpoint: median tumor weight change, dose: 100.0 mg/kg/injection, schedule: Q01DX001 (ip), vehicle: Klucel (hydroxypropylcellulose) (HPC)) 101 % of control. Besides, the T/C is, setting by setting: (endpoint: median tumor weight change, dose: 200.0 mg/kg/injection, schedule: Q01DX001 (ip), vehicle: Klucel (hydroxypropylcellulose) (HPC)) 99 % of control; (endpoint: median tumor weight change, dose: 400.0 mg/kg/injection, schedule: Q01DX001 (ip), vehicle: Klucel (hydroxypropylcellulose) (HPC)) 110 % of control; (endpoint: median tumor weight change, dose: 800.0 mg/kg/injection, schedule: Q01DX001 (ip), vehicle: Klucel (hydroxypropylcellulose) (HPC)) 57 % of control.
